Reference: ChEMBL document CHEMBL1201862, “PubChem BioAssay data set” (2004)
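Tested at 5 concentrations; 48 h exposure; 96-well plates; endpoints linearly interpolated, else capped at highest concentration. The concentration for 50% growth inhibition is given as GI50.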 The source made the active and inactive calls. Rule as the data show it: active = GI50 up to about 1.1 µM and inactive = higher.

Legend:
Test in all cases: inhibition of tumour cell growth, NCI panel, 48 h
[1] = test system: UO-31
[2] = test system: UACC-62
[3] = test system: SK-MEL-2
[4] = test system: SNB-78
[5] = test system: EKVX
[6] = test system: SW-620
[7] = test system: NCI-H226
[8] = test system: M14
[9] = test system: NCI-H23
[10] = test system: COLO 205
[11] = test system: UACC-257
[12] = test system: K562
[13] = test system: Malme-3M
[14] = test system: OVCAR-4
[15] = test system: IGROV-1
[16] = test system: SF-539
[17] = test system: DMS-114
[18] = test system: HT-29
[19] = test system: DLD-1
[20] = test system: LOX IMVI
[21] = test system: LXFL 529
[22] = test system: OVCAR-5
[23] = test system: SNB-19
[24] = test system: 786-0
[25] = test system: CAKI-1
[26] = test system: MOLT-4
[27] = test system: NCI-H460
[28] = test system: HCC 2998
[29] = test system: ACHN
[30] = test system: A549
[31] = test system: RPMI-8226
[32] = test system: SF-295
[33] = test system: HCT-15
[34] = test system: CCRF-CEM
[35] = test system: M19-MEL
[36] = test system: NCI-H522
[37] = test system: OVCAR-3
[38] = test system: SK-OV-3
[39] = test system: KM12
[40] = test system: SF-268
[41] = test system: OVCAR-8
[42] = test system: SK-MEL-5
[43] = test system: HOP-62
[44] = test system: HCT-116
[45] = test system: SN12C
[46] = test system: A498
[47] = test system: SR
[48] = test system: KM-20L2
[49] = test system: HL-60
[50] = test system: U-251
[51] = test system: RXF 393
[52] = test system: NCI/ADR-RES
[53] = test system: MCF7
[54] = test system: BT-549
[55] = test system: HOP-92
[56] = test system: SNB-75
[57] = test system: MDA-MB-231
[58] = test system: T47D
[59] = test system: TK-10
[60] = test system: Hs-578T
[61] = test system: SK-MEL-28
[62] = test system: MDA-MB-435
[63] = test system: DU-145
[64] = test system: PC-3
[65] = test system: MDA-N

Q: Which GI50 [1] does the source give for CC(C)(C)C#COC(=O)c1ccccc1 here?
A: > 100 µM (inactive)

Q: And the GI50 [2]?
A: > 100 µM (inactive)

Q: What about the GI50 [3] of the same compound?
A: > 100 µM (inactive)

Q: And the GI50 [4]?
A: > 100 µM (inactive)

Q: And the GI50 [5]?
A: > 100 µM (inactive)

Q: What about the GI50 [6] of the same compound?
A: > 100 µM (inactive)

Q: What about the GI50 [7] of the same compound?
A: > 100 µM (inactive)

Q: What about the GI50 [8] of the same compound?
A: > 100 µM (inactive)

Q: And the GI50 [9]?
A: > 100 µM (inactive)

Q: What about the GI50 [10] of the same compound?
A: > 100 µM (inactive)

Q: What about the GI50 [11] of the same compound?
A: > 100 µM (inactive)

Q: And the GI50 [12]?
A: > 100 µM (inactive)

Q: And the GI50 [13]?
A: > 100 µM (inactive)

Q: And the GI50 [14]?
A: > 100 µM (inactive)

Q: And the GI50 [15]?
A: > 100 µM (inactive)

Q: And the GI50 [16]?
A: > 100 µM (inactive)

Q: What about the GI50 [17] of the same compound?
A: > 100 µM (inactive)

Q: And the GI50 [18]?
A: > 100 µM (inactive)

Q: What about the GI50 [19] of the same compound?
A: > 100 µM (inactive)

Q: What about the GI50 [20] of the same compound?
A: > 100 µM (inactive)

Q: What about the GI50 [21] of the same compound?
A: > 100 µM (inactive)

Q: And the GI50 [22]?
A: > 100 µM (inactive)

Q: And the GI50 [23]?
A: > 100 µM (inactive)

Q: What about the GI50 [24] of the same compound?
A: > 100 µM (inactive)

Q: What about the GI50 [25] of the same compound?
A: > 100 µM (inactive)

Q: And the GI50 [26]?
A: > 100 µM (inactive)

Q: What about the GI50 [27] of the same compound?
A: > 100 µM (inactive)

Q: And the GI50 [28]?
A: > 100 µM (inactive)

Q: What about the GI50 [29] of the same compound?
A: > 100 µM (inactive)

Q: What about the GI50 [30] of the same compound?
A: > 100 µM (inactive)

Q: And the GI50 [31]?
A: > 100 µM (inactive)

Q: What about the GI50 [32] of the same compound?
A: > 100 µM (inactive)

Q: What about the GI50 [33] of the same compound?
A: > 100 µM

Q: What about the GI50 [34] of the same compound?
A: > 100 µM (inactive)

Q: What about the GI50 [35] of the same compound?
A: > 100 µM (inactive)

Q: What about the GI50 [36] of the same compound?
A: > 100 µM (inactive)

Q: What about the GI50 [37] of the same compound?
A: > 100 µM (inactive)

Q: And the GI50 [38]?
A: > 100 µM (inactive)

Q: And the GI50 [39]?
A: > 100 µM (inactive)

Q: And the GI50 [40]?
A: > 100 µM (inactive)

Q: And the GI50 [41]?
A: > 100 µM (inactive)

Q: What about the GI50 [42] of the same compound?
A: > 100 µM (inactive)

Q: And the GI50 [43]?
A: > 100 µM (inactive)

Q: What about the GI50 [44] of the same compound?
A: > 100 µM (inactive)

Q: And the GI50 [45]?
A: > 100 µM (inactive)

Q: What about the GI50 [46] of the same compound?
A: > 100 µM (inactive)

Q: And the GI50 [47]?
A: > 100 µM (inactive)

Q: And the GI50 [48]?
A: > 100 µM (inactive)

Q: What about the GI50 [49] of the same compound?
A: > 100 µM (inactive)

Q: And the GI50 [50]?
A: > 100 µM (inactive)

Q: Which GI50 [1] does the source give for Oc1cc(Br)cc2cc(Cl)cnc12 here?
A: 1.48 µM (inactive)

Q: What about the GI50 [51] of the same compound?
A: 1.95 µM (inactive)

Q: And the GI50 [2]?
A: 2.08 µM (inactive)

Q: What about the GI50 [3] of the same compound?
A: 22.3 µM (inactive)

Q: What about the GI50 [5] of the same compound?
A: 3.99 µM (inactive)

Q: And the GI50 [6]?
A: 2.83 µM (inactive)

Q: What about the GI50 [7] of the same compound?
A: 16.3 µM (inactive)

Q: And the GI50 [8]?
A: 1.35 µM (inactive)

Q: What about the GI50 [9] of the same compound?
A: 5.47 µM (inactive)

Q: And the GI50 [10]?
A: 21.4 µM (inactive)

Q: And the GI50 [11]?
A: 3.27 µM (inactive)

Q: And the GI50 [12]?
A: 0.627 µM (active)

Q: And the GI50 [52]?
A: 1.21 µM (inactive)

Q: And the GI50 [13]?
A: 2.52 µM (inactive)

Q: And the GI50 [14]?
A: 1 µM (active)

Q: And the GI50 [15]?
A: 1.26 µM (inactive)

Q: And the GI50 [53]?
A: 3.33 µM (inactive)

Q: And the GI50 [16]?
A: 3.19 µM (inactive)

Q: And the GI50 [18]?
A: 11 µM (inactive)

Q: And the GI50 [54]?
A: 2.44 µM (inactive)

Q: What about the GI50 [20] of the same compound?
A: 0.635 µM (active)

Q: What about the GI50 [22] of the same compound?
A: 18.7 µM (inactive)

Q: What about the GI50 [55] of the same compound?
A: 23.4 µM (inactive)

Q: What about the GI50 [23] of the same compound?
A: 3.11 µM (inactive)

Q: And the GI50 [24]?
A: 8.71 µM (inactive)

Q: What about the GI50 [25] of the same compound?
A: 7.55 µM (inactive)

Q: And the GI50 [26]?
A: 1.55 µM (inactive)

Q: What about the GI50 [27] of the same compound?
A: 1.09 µM (active)

Q: What about the GI50 [28] of the same compound?
A: 17.8 µM (inactive)

Q: And the GI50 [29]?
A: 1.95 µM (inactive)

Q: What about the GI50 [30] of the same compound?
A: 2.06 µM (inactive)

Q: And the GI50 [56]?
A: 8.2 µM (inactive)

Q: What about the GI50 [57] of the same compound?
A: 20.8 µM (inactive)

Q: And the GI50 [31]?
A: 2.54 µM (inactive)

Q: What about the GI50 [32] of the same compound?
A: 2.08 µM (inactive)

Q: What about the GI50 [33] of the same compound?
A: 0.665 µM

Q: And the GI50 [34]?
A: 1.53 µM (inactive)

Q: What about the GI50 [58] of the same compound?
A: 3.21 µM (inactive)

Q: And the GI50 [36]?
A: 2.35 µM (inactive)

Q: What about the GI50 [59] of the same compound?
A: 28.5 µM (inactive)

Q: What about the GI50 [60] of the same compound?
A: 0.845 µM (active)

Q: What about the GI50 [37] of the same compound?
A: 1.95 µM (inactive)

Q: And the GI50 [38]?
A: 30.2 µM (inactive)

Q: And the GI50 [61]?
A: 3.29 µM (inactive)

Q: What about the GI50 [39] of the same compound?
A: 4.06 µM (inactive)

Q: And the GI50 [40]?
A: 0.893 µM (active)

Q: What about the GI50 [41] of the same compound?
A: 2.45 µM (inactive)

Q: What about the GI50 [42] of the same compound?
A: 1.71 µM (inactive)

Q: And the GI50 [62]?
A: 3.3 µM (inactive)

Q: And the GI50 [43]?
A: 4.84 µM (inactive)

Q: What about the GI50 [44] of the same compound?
A: 1.66 µM (inactive)

Q: What about the GI50 [45] of the same compound?
A: 3.13 µM (inactive)

Q: What about the GI50 [63] of the same compound?
A: 4.56 µM (inactive)

Q: And the GI50 [64]?
A: 3.59 µM (inactive)

Q: What about the GI50 [46] of the same compound?
A: 8.26 µM (inactive)

Q: And the GI50 [47]?
A: 1.11 µM (active)

Q: What about the GI50 [49] of the same compound?
A: 0.463 µM (active)

Q: And the GI50 [50]?
A: 1.56 µM (inactive)

Q: And the GI50 [65]?
A: 3.45 µM (inactive)
